These results are taken from US11649255B2, “Indazoles as hematopoietic progenitor kinase 1 (HPK1) inhibitors and methods using same” (1st Biotherapeutics, Inc., priority 2020, dated 2023).

Molecules are shown by their SMILES.

The target of this assay is recombinant human HPK1 (Homo sapiens (Human), UniProt Q92918). The assay is described as follows: HPK1 kinase assay (ADP-Glo). As to conditions: 25 μM ATP, MBP substrate. The class given is biochemical. A digest of the protocol: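 Activity was read as ADP formed, detected by ADP-Glo luminescence after the reaction of 5 ng recombinant human HPK1 with MBP and ATP (stocks 0.5 μg/μl and 25 μM) for 40 min at 30 °C. Buffer was Tris pH 7.5 with MgCl2, BSA and DTT, with compound in 0.5% DMSO. IC50 came from inhibition curves.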
Sequence of recombinant human HPK1 (Q92918 whole entry): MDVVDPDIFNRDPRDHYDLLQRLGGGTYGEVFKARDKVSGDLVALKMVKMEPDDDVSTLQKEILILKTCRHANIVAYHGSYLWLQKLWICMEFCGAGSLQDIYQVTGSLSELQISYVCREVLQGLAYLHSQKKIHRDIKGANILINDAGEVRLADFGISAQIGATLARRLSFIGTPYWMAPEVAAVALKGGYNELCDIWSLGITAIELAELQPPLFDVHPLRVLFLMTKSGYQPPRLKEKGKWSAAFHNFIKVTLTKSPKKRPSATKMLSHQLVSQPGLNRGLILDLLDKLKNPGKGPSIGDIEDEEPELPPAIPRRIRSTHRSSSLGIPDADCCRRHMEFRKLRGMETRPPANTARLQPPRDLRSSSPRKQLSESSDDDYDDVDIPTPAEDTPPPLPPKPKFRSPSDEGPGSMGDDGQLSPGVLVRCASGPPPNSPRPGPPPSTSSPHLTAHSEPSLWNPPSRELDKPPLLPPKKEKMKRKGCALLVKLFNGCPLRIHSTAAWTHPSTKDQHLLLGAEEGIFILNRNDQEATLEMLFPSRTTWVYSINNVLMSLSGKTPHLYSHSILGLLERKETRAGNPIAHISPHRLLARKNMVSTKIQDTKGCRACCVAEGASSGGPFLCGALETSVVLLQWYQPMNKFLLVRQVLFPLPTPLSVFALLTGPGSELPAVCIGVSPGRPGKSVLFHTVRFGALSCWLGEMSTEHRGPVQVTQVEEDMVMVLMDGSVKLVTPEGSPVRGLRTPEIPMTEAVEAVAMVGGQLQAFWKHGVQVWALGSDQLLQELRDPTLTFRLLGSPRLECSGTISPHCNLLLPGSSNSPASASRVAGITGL
Regarding `CN(Nc1c(F)c(Cl)c(-c2ccc3nc(NC(=O)[C@@H]4C[C@@H]4F)cn3c2)c2cn[nH]c12)C(=O)OC(C)(C)C` [Example 309, tert-butyl 2-(5-chloro-6-fluoro-4-(2-((1S,2S)-2-fluorocyclopropane-1-carboxamido)imidazo[1,2-a]pyridin-6-yl)-1H-indazol-7-yl)-1-methylhydrazine-1-carboxylate], the half-maximal inhibitory concentration (IC50) (as a rule, the concentration that inhibits the measured activity by half) is under 100 nM.

Consider `Cc1c(F)c([S+](C)[O-])c2[nH]ncc2c1-c1ccc2nc(NC(=O)[C@@H]3C[C@@H]3F)sc2n1` (stereo partly drawn) [Example 177, (1S,2S)-2-fluoro-N-(5-(6-fluoro-5-methyl-7-(methylsulfinyl)-1H-indazol-4-yl)thiazolo[5,4-b]pyridin-2-yl)cyclopropane-1-carboxamide], for which the concentration for half-maximal inhibition (IC50) lay in the range of 101 to 500 nM.

For `Cc1ccc2[nH]ncc2c1-c1ccc2nc(NC(=O)C3CC(F)C3)sc2c1` [Example 6, (1S,3S)-3-fluoro-N-(6-(5-methyl-1H-indazol-4-yl)benzo[d]thiazol-2-yl)cyclobutane-1-carboxamide], the IC50 is 101 to 500 nM.

As for `O=C(Nc1cc2cc(-c3c(Cl)c(F)c(N4CCC4)c4[nH]ncc34)ccn2n1)[C@@H]1C[C@@H]1F` [Example 501, (1S,2S)-N-(5-(7-(azetidin-1-yl)-5-chloro-6-fluoro-1H-indazol-4-yl)pyrazolo[1,5-a]pyridin-2-yl)-2-fluorocyclopropane-1-carboxamide], the IC50 was under 100 nM.

With `CSc1c(F)c(Cl)c(-c2ccn3nc(NC(=O)[C@@H]4C[C@@H]4F)cc3c2)c2cn[nH]c12` [Example 485, (1S,2S)-N-(5-(5-chloro-6-fluoro-7-(methylthio)-1H-indazol-4-yl)pyrazolo[1,5-a]pyridin-2-yl)-2-fluorocyclopropane-1-carboxamide], the IC50 is under 100 nM.

As for `CN(C)c1ccc(-c2ccc3nc(NC(=O)[C@@H]4C[C@@H]4F)sc3n2)c2cn[nH]c12` [Example 216, (1S,2S)-N-(5-(7-(dimethylamino)-1H-indazol-4-yl)thiazolo[5,4-b]pyridin-2-yl)-2-fluorocyclopropane-1-carboxamide], the IC50 is over 1000 nM.

Consider `Cc1ccc2[nH]ncc2c1-c1ccc2nc(NC(=O)C3CC(F)C3)sc2c1` [Example 7, (1R,3R)-3-fluoro-N-(6-(5-methyl-1H-indazol-4-yl)benzo[d]thiazol-2-yl)cyclobutane-1-carboxamide], for which the IC50 fell in the range of 101 to 500 nM.

As to `O=C(Nc1cn2cc(-c3c(Cl)c(F)c(CN4CCC4)c4[nH]ncc34)ccc2n1)[C@@H]1C[C@@H]1F` [Example 380, (1S,2S)-N-(6-(7-(azetidin-1-ylmethyl)-5-chloro-6-fluoro-1H-indazol-4-yl)imidazo[1,2-a]pyridin-2-yl)-2-fluorocyclopropane-1-carboxamide], the IC50 was under 100 nM.

`CCNc1c(F)c(Cl)c(-c2ccc3nc(NC(=O)[C@@H]4C[C@@H]4F)sc3n2)c2cn[nH]c12` [Example 159, (1S,2S)-N-(5-(5-chloro-7-(ethylamino)-6-fluoro-1H-indazol-4-yl)thiazolo[5,4-b]pyridin-2-yl)-2-fluorocyclopropane-1-carboxamide]: the IC50 is under 100 nM.

For the compound `COc1c(F)c(C)c(-c2ccc3nc(NC(=O)[C@@H]4C[C@@H]4F)cn3c2)c2cn[nH]c12` [Example 271, (1S,2S)-2-fluoro-N-(6-(6-fluoro-7-methoxy-5-methyl-1H-indazol-4-yl)imidazo[1,2-a]pyridin-2-yl)cyclopropane-1-carboxamide], the IC50 is under 100 nM.

On to `O=C(Nc1cc2cc(-c3c(Cl)c(F)c(N4CCOCC4)c4[nH]ncc34)ccn2n1)[C@@H]1C[C@@H]1F` [Example 498, (1S,2S)-N-(5-(5-chloro-6-fluoro-7-morpholino-1H-indazol-4-yl)pyrazolo[1,5-a]pyridin-2-yl)-2-fluorocyclopropane-1-carboxamide], for which the IC50 is under 100 nM.

In the case of `CCc1c(F)c(SC(C)(C)C#N)c2[nH]ncc2c1-c1ccn2nc(NC(=O)[C@@H]3C[C@@H]3F)cc2c1` [Example 603, (1S,2S)-N-(5-(7-((2-cyanopropan-2-yl)thio)-5-ethyl-6-fluoro-1H-indazol-4-yl)pyrazolo[1,5-a]pyridin-2-yl)-2-fluorocyclopropane-1-carboxamide], the IC50 is under 100 nM.

For the compound `CC(Nc1c(F)c(Cl)c(-c2ccc3nc(NC(=O)[C@@H]4C[C@@H]4F)cn3c2)c2cn[nH]c12)C(F)F` (stereo partly drawn) [Example 425, (1S,2S)-N-(6-(5-chloro-7-((1,1-difluoropropan-2-yl)amino)-6-fluoro-1H-indazol-4-yl)imidazo[1,2-a]pyridin-2-yl)-2-fluorocyclopropane-1-carboxamide], the half-maximal inhibitory concentration (IC50) was under 100 nM.

`CCc1c(F)c(SCC(=O)O)c2[nH]ncc2c1-c1ccc2nc(NC(=O)[C@@H]3C[C@@H]3F)sc2n1` [Example 168, 2-((5-ethyl-6-fluoro-4-(2-((1S,2S)-2-fluorocyclopropane-1-carboxamido)thiazolo[5,4-b]pyridin-5-yl)-1H-indazol-7-yl)thio)acetic acid]: the IC50 lay within 101 to 500 nM.

On to `CSc1ccc(-c2ccc3nc(NC(=O)[C@@H]4C[C@@H]4F)sc3n2)c2cn[nH]c12` [Example 212, (1S,2S)-2-fluoro-N-(5-(7-(methylthio)-1H-indazol-4-yl)thiazolo[5,4-b]pyridin-2-yl)cyclopropane-1-carboxamide], for which the IC50 was over 1000 nM.

With `CN(C)C1CCC(Nc2c(F)c(Cl)c(-c3ccn4nc(NC(=O)[C@@H]5C[C@@H]5F)cc4c3)c3cn[nH]c23)CC1` (stereo partly drawn) [Example 512, (1S,2S)-N-(5-(5-chloro-7-((4-(dimethylamino)cyclohexyl)amino)-6-fluoro-1H-indazol-4-yl)pyrazolo[1,5-a]pyridin-2-yl)-2-fluorocyclopropane-1-carboxamide], the IC50 was under 100 nM.

Turning to `CC(C)(C)OC(=O)c1ccc2[nH]ncc2c1-c1ccc2nc(NC(=O)C3CC3)sc2c1` [Example 21, tert-butyl 4-(2-(cyclopropanecarboxamido)benzo[d]thiazol-6-yl)-1H-indazole-5-carboxylate], the IC50 is over 1000 nM.

In the case of `C#Cc1n[nH]c2cc(F)c(C)c(-c3ccn4nc(NC(=O)[C@@H]5C[C@@H]5F)cc4c3)c12` [Example 472, (1S,2S)-N-(5-(3-ethynyl-6-fluoro-5-methyl-1H-indazol-4-yl)pyrazolo[1,5-a]pyridin-2-yl)-2-fluorocyclopropane-1-carboxamide], the IC50 is over 1000 nM.

Turning to `CNNc1c(F)c(Cl)c(-c2ccc3nc(NC(=O)[C@@H]4C[C@@H]4F)cn3c2)c2cn[nH]c12` [Example 317, (1S,2S)-N-(6-(5-chloro-6-fluoro-7-(2-methylhydrazineyl)-1H-indazol-4-yl)imidazo[1,2-a]pyridin-2-yl)-2-fluorocyclopropane-1-carboxamide], the IC50 is under 100 nM.

As to `C=CC(=O)Nc1cc2[nH]ncc2c(-c2ccc3nc(NC(=O)[C@@H]4C[C@@H]4F)cn3c2)c1Cl` [Example 286, (1S,2S)-N-(6-(6-acrylamido-5-chloro-1H-indazol-4-yl)imidazo[1,2-a]pyridin-2-yl)-2-fluorocyclopropane-1-carboxamide], the IC50 was over 1000 nM.

For the compound `O=C(NCc1ccsc1)c1ccc2[nH]ncc2c1-c1ccc2nc(NC(=O)C3CC3)sc2c1` [Example 23, 4-(2-(cyclopropanecarboxamido)benzo[d]thiazol-6-yl)-N-(thiophen-3-ylmethyl)-1H-indazole-5-carboxamide], the IC50 is over 1000 nM.
